Results from the NIST ThermoML archive (doi:10.1021/je900757k).

Assay: isobaric coefficient of expansion
Details: Liquid, DSC

ClC(Cl)(Cl)Cl [tetrachloromethane]
isobaric coefficient of expansion
Details | 278.15 K | 288.15 K | 298.15 K | 308.15 K | 318.15 K | 328.15 K | 338.15 K | 348.15 K
5000 kPa | 0.00114 1/K | 0.00116 1/K | 0.00119 1/K | 0.00121 1/K | 0.00124 1/K | 0.00126 1/K | 0.0013 1/K | 0.00132 1/K
10000 kPa | 0.00112 1/K | 0.00113 1/K | 0.00116 1/K | 0.00117 1/K | 0.0012 1/K | 0.00122 1/K | 0.00125 1/K | 0.00126 1/K
15000 kPa | 0.00108 1/K | 0.0011 1/K | 0.00113 1/K | 0.00114 1/K | 0.00116 1/K | 0.00118 1/K | 0.00119 1/K | 0.00121 1/K
20000 kPa | 0.00106 1/K | 0.00108 1/K | 0.00109 1/K | 0.00111 1/K | 0.00113 1/K | 0.00114 1/K | 0.00115 1/K | 0.00116 1/K
25000 kPa | 0.00104 1/K | 0.00105 1/K | 0.00107 1/K | 0.00108 1/K | 0.00109 1/K | 0.0011 1/K | 0.00111 1/K | 0.00112 1/K
30000 kPa | 0.00102 1/K | 0.00103 1/K | 0.00104 1/K | 0.00105 1/K | 0.00106 1/K | 0.00107 1/K | 0.00108 1/K | 0.00109 1/K
35000 kPa | 0.001 1/K | 0.00101 1/K | 0.00102 1/K | 0.00103 1/K | 0.00104 1/K | 0.00104 1/K | 0.00105 1/K | 0.00105 1/K
40000 kPa | 0.000979 1/K | 0.000985 1/K | 0.000996 1/K | 0.00101 1/K | 0.00101 1/K | 0.00101 1/K | 0.00102 1/K | 0.00102 1/K
45000 kPa | 0.000959 1/K | 0.000967 1/K | 0.000978 1/K | 0.000978 1/K | 0.000986 1/K | 0.000986 1/K | 0.000988 1/K | 0.000993 1/K
50000 kPa | 0.000943 1/K | 0.000949 1/K | 0.000955 1/K | 0.000959 1/K | 0.00097 1/K | 0.000965 1/K | 0.000967 1/K | 0.000969 1/K
55000 kPa | 0.000936 1/K | 0.00093 1/K | 0.000935 1/K | 0.00094 1/K | 0.00095 1/K | 0.000946 1/K | 0.000945 1/K | 0.000947 1/K

CCCCCCCCCCCCCC [tetradecane]
isobaric coefficient of expansion
Details | 298.15 K | 308.15 K | 318.15 K | 328.15 K | 338.15 K | 348.15 K
5000 kPa | 0.000909 1/K | 0.000913 1/K | 0.000918 1/K | 0.000922 1/K | 0.000931 1/K | 0.000941 1/K
10000 kPa | 0.000881 1/K | 0.000884 1/K | 0.00089 1/K | 0.00089 1/K | 0.000897 1/K | 0.0009 1/K
15000 kPa | 0.00086 1/K | 0.000861 1/K | 0.000863 1/K | 0.000859 1/K | 0.000863 1/K | 0.000867 1/K
20000 kPa | 0.000837 1/K | 0.000836 1/K | 0.000837 1/K | 0.000833 1/K | 0.000835 1/K | 0.000839 1/K
25000 kPa | 0.000815 1/K | 0.000814 1/K | 0.000815 1/K | 0.00081 1/K | 0.00081 1/K | 0.000812 1/K
30000 kPa | 0.000798 1/K | 0.000793 1/K | 0.000791 1/K | 0.000789 1/K | 0.000789 1/K | 0.000789 1/K
35000 kPa | 0.00078 1/K | 0.000777 1/K | 0.000774 1/K | 0.00077 1/K | 0.000768 1/K | 0.000768 1/K
40000 kPa | 0.000764 1/K | 0.000761 1/K | 0.000756 1/K | 0.000753 1/K | 0.000749 1/K | 0.000747 1/K
45000 kPa | 0.00075 1/K | 0.000742 1/K | 0.000738 1/K | 0.000735 1/K | 0.000732 1/K | 0.000726 1/K
50000 kPa | 0.000737 1/K | 0.00073 1/K | 0.000722 1/K | 0.00072 1/K | 0.000718 1/K | 0.000711 1/K
55000 kPa | 0.000725 1/K | 0.000719 1/K | 0.000714 1/K | 0.000709 1/K | 0.000705 1/K | 0.000699 1/K
